Legend:
[1] = system: Human immunodeficiency virus 1; experiment: Antiviral activity against HIV1 3B in MT4 cell line; format: functional, organism-based; details: Human immunodeficiency virus 1, 3B
[2] = system: Human immunodeficiency virus; experiment: Activity against HIV-112 assessed by inhibition of p24 production in human lymphocytes; format: functional, organism-based; details: Human immunodeficiency virus 1
[3] = system: Lymphocyte; experiment: Selectivity index, TC50 for human lymphocytes/EC50 for HIV1 3B; format: functional
[4] = system: Human immunodeficiency virus 1; experiment: Activity against HIV1 3B assessed by inhibition of p24 production in human lymphocytes; format: functional, organism-based; details: Human immunodeficiency virus 1, 3B
[5] = system: Human immunodeficiency virus; experiment: Activity against HIV-AB1 assessed by inhibition of p24 production in human lymphocytes; format: functional, organism-based; details: Human immunodeficiency virus 1
[6] = system: Lymphocyte; experiment: Cytotoxicity against human lymphocytes; format: functional; details: read-out: TC50 (the source's name)
[7] = system: MT4; experiment: Selectivity index, TC50 for MT4 cell line/EC50 for HIV1; format: functional
[8] = system: Human immunodeficiency virus 1; experiment: Antiviral activity against HIV1 K103N-Y181C mutant in MT4 cell line; format: functional, organism-based; details: Human immunodeficiency virus 1, MT4
[9] = system: MT4; experiment: Cytotoxicity against MT4 cell line by MTT assay; format: functional; details: Homo sapiens, read-out: TC50 (the source's name)
[10] = system: Human immunodeficiency virus 1; experiment: Antiviral activity against HIV1 Y181C mutant in MT4 cell line; format: functional, organism-based; details: Human immunodeficiency virus 1, MT4
[11] = system: C8166; experiment: Antiproliferative activity against C8166 cell line by MTT assay; format: functional; details: Homo sapiens, read-out: TC50 (the source's name)
[12] = system: Lymphocyte; experiment: Selectivity index, TC50 for human lymphocytes/EC50 for HIV-112; format: functional
[13] = system: Human immunodeficiency virus 1; experiment: Antiviral activity against HIV1 in C8166 cell line; format: functional, organism-based; details: Human immunodeficiency virus 1, C8166
[14] = system: Macrophage; experiment: Selectivity index, TC50 for human macrophages/EC50 for HIV1 […]; format: functional
[15] = system: Lymphocyte; experiment: Selectivity index, TC50 for human lymphocytes/EC50 for HIV-AB1; format: functional
[16] = system: Human immunodeficiency virus 1; experiment: Antiviral activity against HIV1 […] in human macrophages; format: functional, organism-based
[17] = system: Macrophage; experiment: Cytotoxicity against human macrophages; format: functional; details: read-out: TC50 (the source's name)
[18] = system: C8166; experiment: Selectivity index, TC50 for C8166 cell line/EC50 for HIV1; format: functional
[19] = system: Human immunodeficiency virus 1; experiment: Antiviral activity against HIV1 in MT4 cell line; format: functional, organism-based; details: Human immunodeficiency virus 1, MT4

Structure (SMILES) | EC50 [1] [nM] | EC50 [2] [nM] | Selectivity index [3] | EC50 [4] [nM] | EC50 [5] [nM] | CC50 [6] [nM] | Selectivity index [7] | EC50 [8] [nM] | CC50 [9] [nM] | EC50 [10] [nM] | CC50 [11] [nM] | Selectivity index [12] | EC50 [13] [nM] | Selectivity index [14] | Selectivity index [15] | EC50 [16] [nM] | CC50 [17] [nM] | Selectivity index [18] | EC50 ([19]; read-out: EC50) [nM] | EC50 ([19]; read-out: Log EC50 (converted)) [nM]
Cc1ccnc2c1NC(=O)c1cccnc1N2C1CC1 [NEVIRAPINE] | 370 | > 20000 | >1111 | 90 | > 20000 | > 100000 | – | – | – | – | – | – | – | – | – | – | – | – | – | –
Cc1cc(C)cc(S(=O)(=O)c2c(C(=O)NNC(=O)NN)[nH]c3ccc(Cl)cc23)c1 | 40 | 50 | >3333 | 30 | 40 | > 100000 | >10000 | 5700 | > 100000 | 20 | > 100000 | >2000 | 8 | >11111 | >2500 | 9 | > 100000 | >12500 | 10 | 10
Cc1cc(C)cc(S(=O)(=O)c2c(C(=O)NCC(=O)NN)[nH]c3ccc(Cl)cc23)c1 | 20 | – | – | – | – | – | >5000 | 2600 | > 100000 | 60 | > 100000 | – | 20 | – | – | – | – | >5000 | 20 | –
CNNC(=O)c1[nH]c2ccc(Cl)cc2c1S(=O)(=O)c1cc(C)cc(C)c1 | 50 | 40 | >5000 | 20 | 20 | > 100000 | >5000 | > 20000 | > 100000 | 130 | > 100000 | >2500 | 30 | >3333 | >5000 | 30 | > 100000 | >3333 | 20 | 20
Cc1cc(C)cc(S(=O)(=O)c2c(C(=O)NCC(N)=O)[nH]c3ccc(Cl)cc23)c1 | 10 | – | – | – | – | – | 4500 | 1200 | 45000 | 50 | > 100000 | – | 20 | – | – | – | – | >5000 | 10 | –
Cc1cc(C)cc(S(=O)(=O)c2c(C(=O)NN3CCOC3=O)[nH]c3ccc(Cl)cc23)c1 | 1 | 30 | >10000 | 10 | 20 | > 100000 | 111111 | 900 | 100000 | 10 | > 100000 | >3333 | 3 | >50000 | >5000 | – | > 100000 | >33333 | 0.9 | 0.899
O=C(NN1CCOC1=O)c1[nH]c2ccc(Cl)cc2c1S(=O)(=O)c1ccccc1 | 15 | 400 | >1000 | 100 | 500 | > 100000 | >6666 | > 20000 | > 100000 | 300 | > 100000 | >250 | 20 | >1666 | >200 | 60 | > 100000 | >5000 | 15 | 15
O=C1Nc2ccc(Cl)cc2[C@@](C#CC2CC2)(C(F)(F)F)O1 [EFAVIRENZ] | – | > 20000 | – | 7 | > 20000 | > 100000 | – | – | – | – | – | – | – | – | – | – | – | – | – | –
CC(=O)NNC(=O)c1[nH]c2ccc(Cl)cc2c1S(=O)(=O)c1cc(C)cc(C)c1 | 5 | 8 | >10000 | 10 | 10 | > 100000 | >20000 | > 20000 | > 100000 | 20 | > 100000 | >12500 | 7 | >12500 | >10000 | 8 | > 100000 | >14285 | 5 | 5
Cc1cc(C)cc(S(=O)(=O)c2c(C(=O)NNC3CCCCC3)[nH]c3ccc(Cl)cc23)c1 | 100 | 1000 | >125 | 800 | 900 | > 100000 | >2000 | > 20000 | > 100000 | 1200 | > 100000 | >100 | 80 | >500 | >111 | 200 | > 100000 | >1250 | 50 | 50
CCOC(=O)NNC(=O)c1[nH]c2ccc(Cl)cc2c1S(=O)(=O)c1cc(C)cc(C)c1 | 20 | 30 | >5000 | 20 | 20 | > 100000 | 5000 | 9200 | 100000 | 40 | > 100000 | >3333 | 50 | >16666 | >5000 | 6 | > 100000 | >2000 | 20 | 20
Cc1cc(C)cc(S(=O)(=O)c2c(C(=O)NNC(C)C)[nH]c3ccc(Cl)cc23)c1 | 0.7 | 6 | >12500 | 8 | 8 | > 100000 | >142857 | 8600 | > 100000 | 40 | > 100000 | >16666 | 3 | >20000 | >12500 | 5 | > 100000 | >33333 | 0.7 | 0.7
